What was measured:
Assay type in all cases: functional
[1] = test system: 786-0; experiment: Growth inhibition of human 786-0 cells assessed as cell growth at 10^-8 M after 48 hrs by sulforhodamine B assay; details: 786-0, 48 h
[2] = Growth inhibition of human MOLT4 cells assessed as cell growth at 10^-8 M after 48 hrs by sulforhodamine B assay; details: MOLT-4, 48 h
[3] = test system: SF-268; experiment: Growth inhibition of human SF268 cells assessed as cell growth at 10^-8 M after 48 hrs by sulforhodamine B assay; details: SF-268, 48 h
[4] = test system: SK-MEL-28; experiment: Growth inhibition of human SK-MEL-28 cells assessed as cell growth at 10^-8 M after 48 hrs by sulforhodamine B assay; details: SK-MEL-28, 48 h
[5] = test system: NCI-H522; experiment: Growth inhibition of human NCI-H522 cells assessed as cell growth at 10^-4 M after 48 hrs by sulforhodamine B assay; details: NCI-H522, 48 h, read-out: Activity
[6] = test system: SN12C; experiment: Growth inhibition of human SN12C cells assessed as cell growth at 10^-4 M after 48 hrs by sulforhodamine B assay; details: read-out: Activity
[7] = test system: ACHN; experiment: Growth inhibition of human ACHN cells after 48 hrs by sulforhodamine B assay
[8] = test system: SW-620; experiment: Growth inhibition of human SW620 cells assessed as cell growth at 10^-8 M after 48 hrs by sulforhodamine B assay; details: SW-620, 48 h
[9] = Growth inhibition of human SF295 cells assessed as cell growth at 10^-7 M after 48 hrs by sulforhodamine B assay; details: SF-295, 48 h, read-out: Activity
[10] = test system: HCT-116; experiment: Growth inhibition of human HCT116 cells after 48 hrs by sulforhodamine B assay; details: HCT-116, 48 h
[11] = test system: MDA-MB-435; experiment: Growth inhibition of human MDA-MB-435 cells assessed as cell growth at 10^-7 M after 48 hrs by sulforhodamine B assay; details: MDA-MB-435, 48 h, read-out: Activity
[12] = test system: MCF7; experiment: Growth inhibition of human MCF7 cells assessed as cell growth at 10^-6 M after 48 hrs by sulforhodamine B assay; details: MCF7, 48 h, read-out: Activity
[13] = test system: M14; experiment: Growth inhibition of human M14 cells assessed as cell growth at 10^-4 M after 48 hrs by sulforhodamine B assay; details: M14, 48 h, read-out: Activity
[14] = Growth inhibition of human UACC257 cells assessed as cell growth at 10^-5 M after 48 hrs by sulforhodamine B assay; details: UACC-257, 48 h, read-out: Activity
[15] = test system: IGROV-1; experiment: Growth inhibition of human IGROV1 cells assessed as cell growth at 10^-7 M after 48 hrs by sulforhodamine B assay; details: IGROV-1, 48 h, read-out: Activity
[16] = test system: NCI-H522; experiment: Growth inhibition of human NCI-H522 cells after 48 hrs by sulforhodamine B assay; details: NCI-H522, 48 h
[17] = test system: MCF7; experiment: Growth inhibition of human MCF7 cells after 48 hrs by sulforhodamine B assay; details: MCF7, 48 h
[18] = test system: T47D; experiment: Growth inhibition of human T47D cells assessed as cell growth at 10^-7 M after 48 hrs by sulforhodamine B assay; details: read-out: Activity
[19] = test system: CAKI-1; experiment: Growth inhibition of human CAKI-1 cells assessed as cell growth at 10^-7 M after 48 hrs by sulforhodamine B assay; details: CAKI-1, 48 h, read-out: Activity
[20] = test system: CCRF-CEM; experiment: Growth inhibition of human CCRF-CEM cells assessed as cell growth at 10^-4 M after 48 hrs by sulforhodamine B assay; details: read-out: Activity
[21] = test system: SK-OV-3; experiment: Growth inhibition of human SKOV3 cells after 48 hrs by sulforhodamine B assay; details: SK-OV-3, 48 h
[22] = Growth inhibition of human LOXIMVI cells assessed as cell growth at 10^-7 M after 48 hrs by sulforhodamine B assay; details: LOX IMVI, read-out: Activity
[23] = Growth inhibition of human RXF393 cells assessed as cell growth at 10^-4 M after 48 hrs by sulforhodamine B assay; details: RXF 393, 48 h, read-out: Activity
[24] = test system: Malme-3M; experiment: Growth inhibition of human MALME-3M cells assessed as cell growth at 10^-6 M after 48 hrs by sulforhodamine B assay; details: read-out: Activity
[25] = test system: U-251; experiment: Growth inhibition of human U251 cells assessed as cell growth at 10^-5 M after 48 hrs by sulforhodamine B assay; details: U-251, 48 h, read-out: Activity
[26] = Growth inhibition of human UACC257 cells assessed as cell growth at 10^-7 M after 48 hrs by sulforhodamine B assay; details: UACC-257, 48 h, read-out: Activity
[27] = test system: M14; experiment: Growth inhibition of human M14 cells assessed as cell growth at 10^-6 M after 48 hrs by sulforhodamine B assay; details: M14, 48 h, read-out: Activity
[28] = test system: HCT-116; experiment: Growth inhibition of human HCT116 cells assessed as cell growth at 10^-4 M after 48 hrs by sulforhodamine B assay; details: HCT-116, 48 h, read-out: Activity
[29] = test system: HOP-62; experiment: Growth inhibition of human HOP62 cells assessed as cell growth at 10^-7 M after 48 hrs by sulforhodamine B assay; details: HOP-62, 48 h, read-out: Activity
[30] = test system: SK-MEL-2; experiment: Growth inhibition of human SK-MEL-2 cells assessed as cell growth at 10^-6 M after 48 hrs by sulforhodamine B assay; details: SK-MEL-2, 48 h, read-out: Activity
[31] = test system: COLO 205; experiment: Induction of apoptosis in human COLO205 cells assessed as caspase 9 activation at 10 uM by FLICA
[32] = Growth inhibition of human HCT15 cells assessed as cell growth at 10^-4 M after 48 hrs by sulforhodamine B assay; details: HCT-15, 48 h, read-out: Activity
[33] = Growth inhibition of human HCT15 cells assessed as cell growth at 10^-6 M after 48 hrs by sulforhodamine B assay; details: HCT-15, 48 h, read-out: Activity
[34] = test system: RPMI-8226; experiment: Growth inhibition of human RPMI8226 cells assessed as cell growth at 10^-6 M after 48 hrs by sulforhodamine B assay; details: RPMI-8226, 48 h, read-out: Activity
[35] = read-out: pLC50 (the source's name) (converted)
[36] = read-out: LC50 (the source's name)

Compound: O=C1/C(=C/c2ccc(Cl)cc2Cl)CN(S(=O)(=O)c2ccccc2)C/C1=C\c1ccc(Cl)cc1Cl
- GI50 [1]: 240 nM
- LC50 [1]: 1700 nM
- growth at 0.01 µM ([1]; read-out: Activity): 101%
- TGI ([1]; read-out: pTGI (converted)): 550 nM
- GI50 [2]: 589 nM
- growth at 0.01 µM ([2]; read-out: Activity): 104%
- CC50 [2, 35]: > 100000 nM
- TGI ([2]; read-out: pTGI (converted)): 9120 nM
- GI50 [3]: 447 nM
- LC50 [3]: > 100000 nM
- growth at 0.01 µM ([3]; read-out: Activity): 99%
- TGI ([3]; read-out: pTGI (converted)): > 100000 nM
- GI50 [4]: 4470 nM
- growth at 0.01 µM ([4]; read-out: Activity): 97%
- CC50 [4, 35]: > 100000 nM
- TGI ([4]; read-out: pTGI (converted)): > 100000 nM
- growth at 100 µM [5]: -56%
- growth at 100 µM [6]: -44%
- GI50 [7]: 874 nM
- TGI [7]: 4560 nM
- CC50 [7, 36]: > 100000 nM
- GI50 [8]: 316 nM
- LC50 [8]: > 100000 nM
- growth at 0.01 µM ([8]; read-out: Activity): 97%
- TGI ([8]; read-out: pTGI (converted)): 2820 nM
- growth at 0.1 µM [9]: 93%
- GI50 [10]: 198 nM
- TGI [10]: 424 nM
- CC50 [10, 36]: 908 nM
- growth at 0.1 µM [11]: 88%
- growth at 1 µM [12]: 14%
- growth at 100 µM [13]: 31%
- growth at 10 µM [14]: 27%
- growth at 0.1 µM [15]: 130%
- GI50 [16]: 854 nM
- TGI [16]: 2990 nM
- CC50 [16, 36]: 9730 nM
- GI50 [17]: 305 nM
- TGI [17]: 100000 nM
- CC50 [17, 36]: > 100000 nM
- growth at 0.1 µM [18]: 96%
- growth at 0.1 µM [19]: 92%
- growth at 100 µM [20]: -19%
- GI50 [21]: 7950 nM
- TGI [21]: > 100000 nM
- CC50 [21, 36]: > 100000 nM
- growth at 0.1 µM [22]: 89%
- growth at 100 µM [23]: -88%
- growth at 1 µM [24]: 123%
- growth at 10 µM [25]: -66%
- growth at 0.1 µM [26]: 90%
- growth at 1 µM [27]: 93%
- growth at 100 µM [28]: -76%
- growth at 0.1 µM [29]: 113%
- growth at 1 µM [30]: 98%
- Activity [31]: 22%
- growth at 100 µM [32]: -36%
- growth at 1 µM [33]: -12%
- growth at 1 µM [34]: -25%
